The source of these data is PubChem BioAssay (NCI).

Among the test systems are HOP-62 NSCLC; SF-539 CNS; NCI-H522 lung; UO-31 renal; RXF 393 renal; KM12 colon; M19-MEL melanoma; ACHN renal; NCI-H226 lung; SN12C renal.
Experiment in all cases: NCI tumour cell line growth inhibition, 48 h

Several values for one entry are separate records, joined by “and”; a condition that tells them apart may be missing. Identical values can stand only once.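 Five concentrations, 48 hours, 96-well plates. GI50: concentration for 50% inhibition of growth. At the TGI there is no net growth.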 Bounds are passed on as bounds.

`CC(=O)NNc1ncc(C(=O)/C=C/c2ccccc2C)s1`: the TGI in the assay on HOP-62 NSCLC, in the assay on SF-539 CNS, in the assay with NCI-H522 lung, with UO-31 renal, in the assay on RXF 393 renal and in the assay with KM12 colon was > 100 µM each time. For the same compound, the TGI in the assay on M19-MEL melanoma and in the assay with ACHN renal was > 100 µM each time.
On to `OCC1CC2C=CCC(C2)C1` (stereo not given), for which the TGI in the assay with HOP-62 NSCLC, with SF-539 CNS, with NCI-H522 lung, in the assay with NCI-H226 lung, in the assay with UO-31 renal and in the assay with SN12C renal was > 100 µM each time. Moreover, the TGI in the assay with RXF 393 renal, with KM12 colon, in the assay with M19-MEL melanoma and in the assay on ACHN renal was > 100 µM in each case.
In the case of `O=[N+]([O-])c1cc(I)cc(/C=N/NS(=O)(=O)c2ccc(F)cc2)c1O`, the TGI in the assay on HOP-62 NSCLC was 55.8 µM; in the assay on SF-539 CNS, 55.8 µM; with NCI-H522 lung it was 40.9 µM; in the assay on UO-31 renal, 61 µM; in the assay on SN12C renal it was 54.1 µM; in the assay on RXF 393 renal, 49.9 µM. Besides, the TGI with KM12 colon stood at 61.9 µM; in the assay on M19-MEL melanoma, 86.7 µM; in the assay with ACHN renal, 81.5 µM.
Consider `CN1C(c2ccccc2)CC(=NO)CC1c1ccccc1` (stereo not given), for which the TGI was > 100 µM with HOP-62 NSCLC; > 100 µM with SF-539 CNS; > 100 µM in the assay with NCI-H522 lung; > 100 µM in the assay on NCI-H226 lung; > 100 µM in the assay on UO-31 renal; 58.9 µM and 97.1 µM in the assay with SN12C renal. For the same compound, the TGI with RXF 393 renal, in the assay on KM12 colon, with M19-MEL melanoma and with ACHN renal was > 100 µM in each case. The GI50 is 39.7 µM with NCI-H522 lung, 30.6 µM in the assay with SN12C renal, 87.9 µM with RXF 393 renal and 49.1 µM with KM12 colon.
Turning to `CSc1ccc(Cc2cc(C(C)(C)C)cc(C(C)(C)C)c2O)cc1`, the TGI turned out to be 35 µM with HOP-62 NSCLC; 31.8 µM with SF-539 CNS; 30.7 µM with UO-31 renal; 28.6 µM in the assay with SN12C renal; 26.3 µM in the assay with RXF 393 renal; 23.4 µM with KM12 colon. Moreover, the figures for the TGI with M19-MEL melanoma and with ACHN renal were 31.1 µM and 29 µM, respectively.
Take `OC(c1cc2ccccc2[nH]1)C(O)(c1cc2ccccc2[nH]1)c1cc2ccccc2[nH]1` (stereo not given): the TGI was found to be 48.3 µM in the assay with HOP-62 NSCLC; 88.7 µM in the assay on SF-539 CNS; 37.5 µM in the assay with NCI-H522 lung; 40.4 µM in the assay on NCI-H226 lung; 11.4 µM with SN12C renal; 29.1 µM in the assay on RXF 393 renal. In addition, the TGI is > 245 µM in the assay with KM12 colon, 23.1 µM in the assay with M19-MEL melanoma and 50.1 µM in the assay with ACHN renal.
Regarding `CON1C(=O)C2(CCCCC2)C(=O)C12C=CC(C)CC2` (stereo not given), the TGI in the assay with HOP-62 NSCLC, with SF-539 CNS, in the assay on NCI-H522 lung, in the assay with NCI-H226 lung, in the assay with UO-31 renal and in the assay on SN12C renal was > 100 µM in each case. The TGI in the assay on RXF 393 renal, in the assay with KM12 colon and in the assay with M19-MEL melanoma was > 100 µM each time.
In the case of `COC(=O)CCCCCOS(=O)(=O)c1ccc(C)cc1`, the TGI in the assay on SF-539 CNS, in the assay with NCI-H522 lung, in the assay with UO-31 renal, in the assay with SN12C renal, in the assay on RXF 393 renal and in the assay on KM12 colon was > 100 µM each time. Also, the TGI in the assay on M19-MEL melanoma and with ACHN renal was > 100 µM throughout.
As for `Cc1ccc(NC(=O)CCc2nnc3s/c(=C\C=C\c4ccccc4)c(=O)n23)cc1`, the TGI in the assay on HOP-62 NSCLC, in the assay on SF-539 CNS, with NCI-H522 lung, with NCI-H226 lung, in the assay on UO-31 renal and in the assay with SN12C renal was > 100 µM each time. The TGI in the assay on RXF 393 renal, in the assay with KM12 colon, in the assay on M19-MEL melanoma and in the assay with ACHN renal was > 100 µM each time.
Consider `CC1=NC(C)=C(/C(C)=N/NC(=O)c2ccccc2O)C(C)/C1=C(/C)NNC(=O)c1ccccc1O` (stereo not given), for which the TGI with HOP-62 NSCLC is > 100 µM; in the assay with SF-539 CNS, 76.2 µM; in the assay on NCI-H522 lung, 43.6 µM; in the assay with UO-31 renal it was 43.1 µM; with SN12C renal, > 100 µM; with RXF 393 renal it was 26.2 µM. Further, the TGI was > 100 µM in the assay with KM12 colon, > 100 µM in the assay with M19-MEL melanoma and 86.4 µM in the assay on ACHN renal.
Take `C=CCN=C1NC(=O)C(CC(=O)Nc2cccc(Cl)c2)S1` (stereo not given): the TGI with HOP-62 NSCLC, in the assay on SF-539 CNS, in the assay on NCI-H522 lung, in the assay on NCI-H226 lung, with UO-31 renal and with SN12C renal was > 100 µM each time. The TGI in the assay on RXF 393 renal, in the assay on KM12 colon, in the assay on M19-MEL melanoma and in the assay with ACHN renal was > 100 µM throughout.
With `Cn1cnc(SC2=CC(=O)C=C3S[C@H]4C[C@@]23c2c(c(O)c3c5c2=NCCC=5C=N3)N4)c1CC(N)C(=O)O` (stereo not given in full), the GI50 in the assay on SF-539 CNS is 16.6 µM; in the assay on NCI-H522 lung it was 2.42 µM; in the assay with NCI-H226 lung it was 15.8 µM; with UO-31 renal, 16.4 µM; in the assay on SN12C renal it was 7.26 µM; in the assay with RXF 393 renal, 10.6 µM. The results for the GI50 with KM12 colon and in the assay on ACHN renal were 12.7 µM and 15.6 µM, respectively. Moreover, the TGI is 30.8 µM in the assay on SF-539 CNS; 5.74 µM with NCI-H522 lung; 33.8 µM in the assay on NCI-H226 lung; 30.3 µM in the assay on UO-31 renal; 19.1 µM with SN12C renal; 23.8 µM in the assay on RXF 393 renal. Moreover, the TGI came to 25.4 µM in the assay with KM12 colon, 3.89 µM in the assay on M19-MEL melanoma and 29.1 µM in the assay with ACHN renal.
Regarding `CC(=O)N(N=O)c1ccc(N(N=O)C(C)=O)cc1`, the TGI in the assay with HOP-62 NSCLC, in the assay on SF-539 CNS, with NCI-H522 lung, with NCI-H226 lung, in the assay with UO-31 renal and in the assay with SN12C renal was > 100 µM in each case. For the same compound, the TGI with RXF 393 renal, in the assay on M19-MEL melanoma and in the assay on ACHN renal was > 100 µM each time.
